A word on the MIC: it is the smallest concentration in the dilution series that meets the test's criterion for growth inhibition. A lower MIC goes with inhibition by little substance.

In DBAASP one finds MIC data, which are given here for 3 molecules.

≈ marks a conversion by molar mass, not a printed value. Where “and” joins values, the source holds several entries; their conditions need not be identical. Identical values can stand only once. Some results are limits rather than exact numbers.

Test systems include Enterococcus faecalis; Escherichia coli; Pseudomonas aeruginosa; Staphylococcus aureus; Escherichia coli AB94012; Enterococcus faecium; Klebsiella pneumoniae; Acinetobacter baumannii; Staphylococcus capitis 1; Saccharomyces cerevisiae; Escherichia coli D21; Acinetobacter junii RT-4; Bacillus megaterium Bm11; Bordetella pertussis.
Assay in all cases: ≥ marks a high value that may be exact or a test limit, other limits are often not marked, values filed in µg/mL are converted to µM
The test system of test [1] is Staphylococcus aureus ATCC 29213.
Test [2] concerns Pseudomonas aeruginosa A093085.
Test [3] concerns Escherichia coli ATCC 25922.
The test system of test [4] is Bacillus subtilis AB91021.
Test [5] relates to Micrococcus luteus AB93113.
The subject of test [6] is Escherichia coli ATCC 35218.
Test [7] relates to Acinetobacter baumannii ATCC 19606.
Test [8] deals with Staphylococcus aureus NBRC 100910.
In test [9] the test system is Staphylococcus epidermidis P1389.
In test [10] the test system is Bacillus thuringiensis AB92037.
Test [11] has as its system Klebsiella pneumoniae ATCC 700603.
Test [12] has as its system Staphylococcus aureus AB94004.
In test [13] the test system is Staphylococcus aureus ATCC 25923.
Test [14] relates to Pseudomonas aeruginosa A093056.
For test [15], the system named is Pseudomonas aeruginosa A092994.
The subject of test [16] is Pseudomonas aeruginosa ATCC 27853.
The test system of test [17] is Staphylococcus aureus P1381.
For test [18], the system named is Pseudomonas aeruginosa A093115.
In test [19] the test system is Staphylococcus epidermidis P1111.
In test [20] the test system is Staphylococcus aureus P1383.
Test [21] has as its system Staphylococcus epidermidis.
For test [22], the system named is Staphylococcus aureus P1374.
In test [23] the test system is Enterococcus faecalis ATCC 29212.
The test system of test [24] is Pseudomonas aeruginosa A093052.
The subject of test [25] is Staphylococcus aureus P1369.
The subject of test [26] is Pseudomonas aeruginosa AB93066.
Test [27] has as its system Pseudomonas syringae pv. tabaci 1918NCPPB.
For test [28], the system named is Schizosaccharomyces pombe.
The subject of test [29] is Candida albicans ATCC 10231.
The subject of test [30] is Staphylococcus aureus Cowan 1.
In test [31] the test system is Staphylococcus epidermidis ATCC 12228.
The test system of test [32] is Streptococcus pyogenes ATCC 21547.
In test [33] the test system is Pseudomonas aeruginosa ATCC 15692.
The test system of test [34] is Yersinia pseudotuberculosis YPIII.

For the molecule `CC[C@H](C)[C@H](NC(=O)[C@H](CCCN=C(N)N)NC(=O)[C@H](CCCCN)NC(=O)[C@@H](NC(=O)[C@@H](N)Cc1ccccc1)[C@@H](C)CC)C(=O)N[C@@H](C)C(=O)N[C@@H](CCCN=C(N)N)C(=O)N[C@@H](CC(C)C)C(=O)N[C@@H](CC(C)C)C(=O)N[C@@H](CCCN=C(N)N)C(=O)N[C@@H](CCCCN)C(=O)N[C@H](C(=O)N[C@@H](Cc1ccccc1)C(N)=O)[C@@H](C)CC` [FIKRIARLLRKIF], the minimum inhibitory concentration (MIC) in the test on Enterococcus faecalis was 5.97 µM (≈ 9.99 µg/mL); in test [1] it was 2.99 µM (≈ 5 µg/mL); in the test with Escherichia coli, 8.45 µM (≈ 14.1 µg/mL); in [2] it was 29.9 µM (≈ 50 µg/mL); in test [3], 14.9 µM and 5.97 µM; in test [4] it was 3.73 µM (≈ 6.25 µg/mL). Besides, the MIC in [5] stood at 3.73 µM (≈ 6.25 µg/mL); in the test on Pseudomonas aeruginosa, 8.45 µM (≈ 14.1 µg/mL); in test [6] it was 5.97 µM (≈ 9.99 µg/mL); in test [7], 2.99 µM (≈ 5 µg/mL); in test [8] it was 2.39 µM (≈ 4 µg/mL); in [9] it was 3.73 µM (≈ 6.25 µg/mL). The MIC is 3.73 µM (≈ 6.25 µg/mL) in [10]; 2.11 µM (≈ 3.53 µg/mL) in the test with Staphylococcus aureus; 5.97 µM (≈ 9.99 µg/mL) in [11]; 3.73 µM (≈ 6.25 µg/mL) against Escherichia coli AB94012; 1.87 µM (≈ 3.13 µg/mL) in test [12]; 2.99 µM (≈ 5 µg/mL) against Enterococcus faecium. Besides, the minimal inhibitory concentration (MIC) in test [13] turned out to be 1.87 µM (≈ 3.13 µg/mL); in [14], 29.9 µM (≈ 50 µg/mL); in the test with Klebsiella pneumoniae it was 5.97 µM (≈ 9.99 µg/mL); in test [15] it was 29.9 µM (≈ 50 µg/mL); against Acinetobacter baumannii it was 4.22 µM (≈ 7.07 µg/mL); in test [16], 5.97 µM (≈ 9.99 µg/mL). The MIC in [17] was 3.73 µM (≈ 6.25 µg/mL); in [18], at least 59.7 µM; in test [19], 1.87 µM (≈ 3.13 µg/mL); in test [20], 3.73 µM (≈ 6.25 µg/mL); in [21], 2.11 µM (≈ 3.53 µg/mL); in [22] it was 1.87 µM (≈ 3.13 µg/mL). Further, the MIC in [23] is 2.99 µM (≈ 5 µg/mL); in [24] it was at least 59.7 µM; in test [25], 1.87 µM (≈ 3.13 µg/mL); in test [26], 14.9 µM (≈ 25 µg/mL).

On to `CC[C@H](C)[C@H](NC(=O)[C@H](CCCCN)NC(=O)CNC(=O)[C@H](CC(C)C)NC(=O)[C@H](Cc1ccccc1)NC(=O)[C@H](CCCCN)NC(=O)[C@H](CO)NC(=O)[C@H](Cc1ccccc1)NC(=O)[C@H](Cc1c[nH]c2ccccc12)NC(=O)[C@H](CCC(N)=O)NC(=O)[C@@H](NC(=O)[C@@H](N)Cc1ccccc1)C(C)C)C(=O)N[C@@H](CC(C)C)C(N)=O` [FVQWFSKFLGKIL], for which the minimum inhibitory concentration (MIC) in [3] was 12 µM (≈ 19.3 µg/mL); in test [7], 6 µM (≈ 9.67 µg/mL); in the test on Staphylococcus capitis 1, 6 µM (≈ 9.67 µg/mL); in test [27], 24 µM (≈ 38.7 µg/mL); in test [13], 6 µM (≈ 9.67 µg/mL); in test [28], 6 µM (≈ 9.67 µg/mL). The MIC against Saccharomyces cerevisiae was 6 µM (≈ 9.67 µg/mL); in [16] it was 48 µM (≈ 77.4 µg/mL); in test [29], 12 µM (≈ 19.3 µg/mL); in test [30] it was 12 µM (≈ 19.3 µg/mL); in the test on Escherichia coli D21, 24 µM (≈ 38.7 µg/mL); in test [31], 6 µM (≈ 9.67 µg/mL). In addition, the MIC in [23] came out at 12 µM (≈ 19.3 µg/mL); in [32], 6 µM (≈ 9.67 µg/mL); in the test with Acinetobacter junii RT-4, 6 µM (≈ 9.67 µg/mL); in test [33] it was 24 µM (≈ 38.7 µg/mL); with Bacillus megaterium Bm11 it was 3 µM (≈ 4.84 µg/mL); in test [34], 6 µM (≈ 9.67 µg/mL).

Turning to `CC[C@H](C)[C@@H]1NC(=O)[C@H](CCC(N)=O)NC(=O)[C@H](CCCCN)NC(=O)[C@H](CCSC)NC(=O)[C@H](CCCCN)NC(=O)[C@@H]2CCCN2C(=O)[C@H](C)NC(=O)[C@@H]2CSSC[C@@H](C(=O)N[C@@H](CCCCN)C(=O)N[C@@H](CCCN=C(N)N)C(=O)N[C@@H](CCCCN)C(=O)O)NC(=O)[C@@H]3CSSC[C@H](NC(=O)[C@H](CO)NC(=O)[C@@H](NC(=O)[C@H](CO)NC(=O)[C@H](CC(N)=O)NC(=O)CNC(=O)[C@@H](NC(=O)[C@H](CC(N)=O)NC(=O)[C@@H](N)CCCCN)[C@@H](C)CC)C(C)C)C(=O)N[C@@H](CC(C)C)C(=O)N[C@@H](CCCN=C(N)N)C(=O)N[C@@H](CC(N)=O)C(=O)N[C@@H](CCCCN)C(=O)NCC(=O)N[C@@H](C(C)C)C(=O)N[C@@H](CSSC[C@H](NC(=O)[C@H]([C@@H](C)O)NC(=O)CNC1=O)C(=O)NCC(=O)N[C@@H](CCSC)C(=O)N1CCC[C@H]1C(=O)N[C@@H](CCC(N)=O)C(=O)N[C@@H](C(C)C)C(=O)N[C@@H](CCCCN)C(=O)N3)C(=O)N[C@@H](CCSC)C(=O)N1CCC[C@H]1C(=O)NCC(=O)N[C@@H](CCCCN)C(=O)N2` [KNIGNSVSCLRNKGVCMPGKCAPKMKQIGTCGMPQVKCCKRK], the minimum inhibitory concentration (MIC) in test [3] came out at 22.1 µM (≈ 99.9 µg/mL); in test [13], 17.7 µM (≈ 79.9 µg/mL); in the test with Bordetella pertussis it was 1.1 µM (≈ 4.99 µg/mL).
